Results taken from PMC3602187, “From Design to Screening: A New Antimicrobial Peptide Discovery Pipeline” (PLoS ONE, 2013).

What follows are substances tested on Listeria innocua 33090 (assay: colony overlay assay of peptide-secreting E. coli clones (library screening and re-test)). Conditions: library screening; selected colonies pooled by zone size; peptides identified by 454 sequencing, full-length sequences with minimum 20 reads.
Format: cell-based
Design: key: higher activity group (H); equal activity group (E); lower activity group (L)
Summary of the method: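 Pln-423 mutant library expressed periplasmically in leaky E. coli JE5505 (pFLAG-CTS); colonies grown 24 h at 37°C, then overlaid with TSB soft agar containing 1 mM IPTG and L. innocua ATCC 33090 (OD600 = 0.03) and incubated overnight at 30°C. Activity scored by inhibition-zone size versus wild-type Pln-423; hits re-tested after 4 h regrowth.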

| Substance | activity group by size of inhibition zone compared to wild-type Pln-423 |
| --- | --- |
| KYYGNGVTCGKHSCSVNWGQAFSCSVSILANFGHGKC* [GROUP L-UM-6] | L |
| KYYGNGVTCGKHSCSVNWGQAFSCSVSKLAHFGHGKC* [Pep-2_8515] | L |
| KYYGNGVTCGKHSCSVNWGQAFSCSVSKMANFGHGKC* [Pep-2_7543] | L |
| KYYGNGVTCGKHSCSVNWGQAFSCSVSNLANFGHGCC* [Pep-2_6834] | L |
| KYYGNGVTCGKHSCSVNWGQAFSCSVSNLANFGHGKC* [Pep-1_63] | E |
| KYYGNGVTCGKHSCSVNWGQAFSCSVSNLANFGHGRC* [Pep-2_6829] | L |
| KYYGNGVTCGKHSCSVNWGQAFSCSVSNLANFGRGKC* [Pep-2_6817] | L |
| KYYGNGVTCGKHSCSVNWGQAFSCSVSRLAAFGHGKC* [Pep-2_6587] | L |
| KYYGNGVTCGKHSCSVNWGQAFSCSVSRLANFGEGKC* [Pep-2_6602] | H |
| KYYGNGVTCGKHSCSVNWGQAFSCSVSRLANFGHGKC* [Pep-1_61] | E and H |
| KYYGNGVTCGKHSCSVNWGQAFSCSVSRVANFGHGKC* [Pep-2_6574] | L |
| KYYGNGVTCGKHSCSVNWGQAFSCSVSSLANFGHGKC* [GROUP E-UM-3] | E |
| KYYGNGVTCGKHSCSVNWGQAFSCSVSSLANFGHGLC* [Pep-2_12081] | E |
| KYYGNGVTCGKHSCSVNWGQAFSCSVSVLANFGHGKC* [Pep-1_64] | E |
| KYYGNGVTCGKHSCSVNWGQAFSCSVSVLANFGHGNC* [Pep-2_6939] | L |
| KYYGNGVTCGKHSCSVNWGQAFSCSVSVLANFGHNKC* [Pep-2_6933] | L |
| KYYGNGVTCGKHSCSVNWGQAFSCSVSVLANFGNGKC* [Pep-2_6927] | H |
| KYYGNGVTCGKHSCSVNWGQAFSCSVSWLANFGHGKC* [GROUP L-UM-12] | L |
| KYYGNGVTCGKHSCSVNWGQAFSCSVSWLANFGSGKC* [Pep-2_10680] | L |
| KYYGNGVTCGKHSCSVNWGQAFSCSVTHIANFGHGKC* [Pep-2_6142] | L |
| KYYGNGVTCGKHSCSVNWGQAFSCSVTHLANFGHAKC* [Pep-2_6179] | E |
| KYYGNGVTCGKHSCSVNWGQAFSCSVTHLANFGHGKC* [Pep-1_57] | L and E |
| KYYGNGVTCGKHSCSVNWGQAFSCSVTHLANFGHGRC* [Pep-2_6181] | E |

| Substance | activity group by size of inhibition zone compared to wild-type Pln-423 |
| --- | --- |
| KYYGNGVTCGKHSCSVNWGQAFSCSVTHLANFGLGKC* [Pep-2_6172] | E |
| KYYGNGVTCGKHSCSVNWGQAFSCSVTHLASFGHGKC* [Pep-2_6153] | L |
| KYYGNGVTCGKHSCSVNWGQAFSCSVTILANFGHGKC* [Pep-2_6136] | L |
| KYYGNGVTCGKHSCSVNWGQAFSCSVVHIANFGHGKC* [Pep-2_6250] | H |
| KYYGNGVTCGKHSCSVNWGQAFSCSVVHLANFGHGKC* [Pep-1_58] | L and E |
| KYYGNGVTCGKHSCSVNWGQAFSCSVVHLVNFGHGKC* [Pep-2_6256] | L |
| KYYGNGVTCGKHSCSVNWGQAFSCSWSHLANYGHGKC* [Pep-2_5835] | L |
| KYYGNGVTCGKHSCSVNWGQAFSCTVEHLANFGHGKC* [Pep-2_6015] | E and H |
| KYYGNGVTCGKHSCSVNWGQAFSCTVSHLANFGHGKC* [GROUP L-UM-28] | L |
| KYYGNGVTCGKHSCSVNWGQAFSCTVSNLANFGHGKC* [Pep-2_6771] | L and E and H |
| KYYGNGVTCGKHSCSVNWGQAFSCVVRHLANFGHGKC* [Pep-2_4939] | L |
| KYYGNGVTCGKHSCSVNWGQAFSCVVSHIANFGHGKC* [Pep-2_4954] | L |
| KYYGNGVTCGKHSCSVNWGQAFSCVVSHLANFGHGKC* [Pep-1_46] | L |
| KYYGNGVTCGKHSCSVNWGQAFSCVVSHLANFGHGTC* [Pep-2_4995] | L |
| KYYGNGVTCGKHSCSVNWGQAFSCVWSHLANFGHGKC* [Pep-2_4938] | L |
| KYYGNGVTCGKHSCSVNWGQAFSCWVSHLANFGHGKC* [GROUP L-UM-15] | L |
| KYYGNGVTCGKHSCSVNWGQAFSCYASHLANFGHGKC* [Pep-2_5691] | L |
| KYYGNGVTCGKHSCSVNWGQAFSCYMSHLANFGHGAC* [GROUP L-UM-9] | L |
| KYYGNGVTCGKHSCSVNWGQAFVCSNSHLANFGHGKC* [Pep-2_3639] | L |
| KYYGNGVTCGKHSCSVNWGQAFVCSVDHLANFGHGKC* [Pep-2_3644] | E |
| KYYGNGVTCGKHSCSVNWGQAFVCSVRHLANFGHGKC* [Pep-2_3643] | L |
| KYYGNGVTCGKHSCSVNWGQAFVCSVSHLANFGHGKC* [Pep-1_34] | L and E |
| KYYGNGVTCGKHSCSVNWGQAFVCSVSHLANFGHGTC* [Pep-2_3699] | E and H |

| Substance | activity group by size of inhibition zone compared to wild-type Pln-423 |
| --- | --- |
| KYYGNGVTCGKHSCSVNWGQAFWCSVSHLANFGHGKC* [Pep-1_36] | L |
| KYYGNGVTCGKHSCSVNWGQAFWCSVSKLANFGHGKC* [Pep-2_3865] | L |
| KYYGNGVTCGKHSCSVNWGQAFYCSVSHLANFGHGKC* [GROUP L-UM-29] | L |
| KYYGNGVTCGKHSCSVNWGQAGSCSVSRLANFGHGKC* [Pep-2_6539] | H |
| KYYGNGVTCGKHSCSVNWGQAGSCVVSHLANFGHGKC* [Pep-2_4919] | L |
| KYYGNGVTCGKHSCSVNWGQAIVCSVSHLANFGHGKC* [Pep-2_3622] | L |
| KYYGNGVTCGKHSCSVNWGQALSCAVSHLANFGHGKC* [Pep-2_5026] | L |
| KYYGNGVTCGKHSCSVNWGQALSCSVTHLANFGHGKC* [GROUP L-UM-8] | L |
| KYYGNGVTCGKHSCSVNWGQAMSCSVSRLANFGHGKC* [Pep-2_6538] | E |
| KYYGNGVTCGKHSCSVNWGQAVSCSVHHLANFGHGKC* [GROUP E-UM-6] | E |
| KYYGNGVTCGKHSCSVNWGQAVSCSVSHLANFGHGKC* [Pep-1_28] | E |
| KYYGNGVTCGKHSCSVNWGQAYSCSVSHLANFGHGKC* [GROUP L-UM-21] | L |
| KYYGNGVTCGKHSCSVNWGQGFSCAVSHLANFGHGKC* [Pep-2_2447] | L |
| KYYGNGVTCGKHSCSVNWGQGFSCSVNHLANFGHGKC* [Pep-2_2457] | L |
| KYYGNGVTCGKHSCSVNWGQGFSCSVSHLANFGHGKC* [Pep-1_23] | L |
| KYYGNGVTCGKHSCSVNWGQSFSCSFSHLANFGHGKC* [Pep-2_5559] | L |
| KYYGNGVTCGKHSCSVNWGQSFSCSVSHLANFGHGKC* [GROUP E-UM-5] | E |
| KYYGNGVTCGKHSCSVNWGQVFSCSVSHLANFGHGHC* [Pep-2_11716] | L |
| KYYGNGVTCGKHSCSVNWGQVFSCSVSHLANFGHGKC* [Pep-1_22] | L |
| KYYGNGVTCGKHSCSVNWGQWFSCSVSHLANFGMGKC* [Pep-2_10746] | L |
| KYYGNGVTCGKHSCSVNWGRAFSCSVAHLANFGHGKC* [Pep-2_6307] | L |
| KYYGNGVTCGKHSCSVNWGRAFSCSVSRLANFGHGKC* [Pep-2_6523] | L |
| KYYGNGVTCGKHSCSVNWGSAFSCSVSHLANFGEGSC* [GROUP L-UM-24] | L |
